Assay results from patent US9833431B2, “Pharmaceutical combinations for the treatment of cancer” (Pitney Pharmaceuticals Pty Limited, priority 2013, dated 2017).
“Also recorded” adds a separate entry of the source. Like-named read-outs stand apart in the source and are kept apart here.

Experiments:
OVCAR-3 and A2780 = format: cell-based, human; details: Example 2; cell line not given
A2780 = test: SRB cytotoxicity / proliferation assay, A2780 cells; details: for Interaction of the drug with MPL (synergy), in words: 72 h; for IC50: read-out: IC50 value, cell proliferation, approximate values
Protocol: (§2) Cells were seeded in 96-well plates (2,000-3,000 cells/well) and culture overnight prior to treatment with MPL. Control cultures were treated with ethanol alone.
(§3) Cells were seeded in 96-well plates (2,000-3,000 cells/well), treated with the indicated compound(s) for 72 h, fixed, washed and stained with 100 μl of 0.4% (w/v) SRB dissolved in 1% acetic acid. Unbound dye was removed by five washes with 1% acetic acid before air-drying.
Cell viability was conducted according to standard Trypan Blue method. Cell proliferation was assessed using the sulforhodamine B (SRB) assay. For viability experiments, cells were seeded in 6 well plates, whereas for proliferation assays cells were grown in 96 well plates. Following over-night attachment, cells were treated with the intended drug at various concentrations either alone or in combination with monepantel (MPL) for 72 h. Parallel to this, cells treated with MPL alone were also deployed for comparative purposes. Following incubation for 72 h in a standard cell culture incubator, effect of mono and combined drug treatments on cell viability and/or cell proliferation was assessed through using Trypan Blue or SRB assays respectively.
(§4) For viability assay, at the end of treatment period, cells were washed with PBS, trypsinized and counted using Trypan blue and hemocytometer. For the SRB assay cells were fixed, washed and stained with 100 μl of 0.4% (w/v) SRB dissolved in 1% acetic acid. Unbound dye was removed by five washes with 1% acetic acid before air drying. […] Monepantel (gift by Novartis, Basel, Switzerland) was dissolved in 100% ethanol and then diluted with the cell culture media.

YOU = test: SRB cytotoxicity assay, YOU cells; format: cell-based, human; details: YOU mesothelioma cells; 72 h; FIG. 25
Protocol: (§1) All cell lines described herein were purchased from ATCC. […] Control cultures were treated with ethanol alone.

REN = test: SRB cytotoxicity assay, REN cells; format: cell-based, human; details: REN mesothelioma cells; 72 h; FIG. 25
Protocol: as §1

LN-18 = test: SRB cytotoxicity assay, LN-18 cells; format: cell-based, human; details: LN18 cells; 72 h; FIG. 21
Protocol: as §1

HT-29 = test: cells; format: cell-based; details: HT29 cells; MPL 5 μM; 5-FU 20 μM, gemcitabine 0.5 μM, oxaliplatin 1 μM; 72 h; FIG. 27
Protocol: as §1

CFPAC-1 = test: SRB cytotoxicity assay, CFPAC-1 cells; details: CFPAC-1 cells, 72 h
Protocol: as §2
(§5) Cytotoxicity was assessed using the sulforhodamine B (SRB) assay and reported as half maximal inhibitory concentration (IC50; Table 3). Cells were seeded in 96-well plates (2,000-3,000 cells/well), treated with the indicated compound(s) for 72 h, fixed, washed and stained with 100 μl of 0.4% (w/v) SRB dissolved in 1% acetic acid. Unbound dye was removed by five washes with 1% acetic acid before air-drying.
(§6) MPL (5 μM) and combination drugs were applied for 72 h unless indicated.

AsPC1 = test: SRB cytotoxicity assay, AsPC1 cells; format: cell-based, human; details: AsPC-1 cells; 72 h; FIG. 23
Protocol: as §1

Hep3B = test: SRB cytotoxicity assay, Hep3B cells; format: cell-based, human; details: Hep3B cells; MPL at 5 μM; 48 h; FIG. 24
Protocol: as §1

HOSE [1] = test: SRB cytotoxicity assay, HOSE non-malignant control cells; details: for Interaction of the drug with MPL (synergy), in words: HOSE non-malignant control cells, concentrations as stated at the place or in the figure
Protocol: (§7) All cell lines described herein were purchased from ATCC. Cells were seeded in 96-well plates (2,000-3,000 cells/well) and culture overnight prior to treatment with MPL. Control cultures were treated with ethanol alone.
as §3
(§8) Corresponding cytotoxicity of the major metabolite MPL-SO2 has also been tested where indicated. […] HUVEC, human fetal astrocytes and HOSE cells are non-transformed, non-immortalized and non-malignant, freshly isolated/low passage number cell populations, from apparently healthy non-diseased tissue. These healthy cell populations were included in the experimental series as controls for non-specific toxicity. Both MPL and MPL-SO2 were suspended in ethanol and applied in final concentrations of 0.5 to 1% ethanol in the respective culture media.
(§9) In order to evaluate the effect of MPL on the in vitro efficacy of an established drug was evaluated using cell viability and cell proliferation assays. Cell viability was conducted according to standard Trypan Blue method. Cell proliferation was assessed using the sulforhodamine B (SRB) assay. For viability experiments, cells were seeded in 6 well plates, whereas for proliferation assays cells were grown in 96 well plates. Following over-night attachment, cells were treated with the intended drug at various concentrations either alone or in combination with monepantel (MPL) for 72 h. Parallel to this, cells treated with MPL alone were also deployed for comparative purposes. Following incubation for 72 h in a standard cell culture incubator, effect of mono and combined drug treatments on cell viability and/or cell proliferation was assessed through using Trypan Blue or SRB assays respectively.
(§10) For viability assay, at the end of treatment period, cells were washed with PBS, trypsinized and counted using Trypan blue and hemocytometer. For the SRB assay cells were fixed, washed and stained with 100 μl of 0.4% (w/v) SRB dissolved in 1% acetic acid. Unbound dye was removed by five washes with 1% acetic acid before air drying. […] Monepantel (gift by Novartis, Basel, Switzerland) was dissolved in 100% ethanol and then diluted with the cell culture media. Other agents employed in the study were purchased either from Sigma Australia or Sapphire Australia, prepared and preserved for cell culture use according to supplier instructions.
as §6

C170 = test: SRB cytotoxicity assay, C170 cells; format: cell-based; details: C170 cells; MPL 5 μM; 5-FU 20 μM, gemcitabine 0.5 μM, oxaliplatin 1 μM; 72 h; FIG. 27
Protocol: as §1

PET = test: SRB cytotoxicity assay, PET cells; format: cell-based, human; details: PET mesothelioma cells; 72 h; FIG. 25
Protocol: as §1

OVCAR-3 = test: SRB cytotoxicity / proliferation assay, OVCAR-3 cells; details: 72 h; for Interaction of the drug with MPL (synergy), in words: OVCAR-3 cells, concentrations as stated in the figure
Protocol: as §2, §5, §9, §4, §6

U87 = test: SRB cytotoxicity assay, U87 cells; format: cell-based, human; details: U87 cells; 72 h; FIG. 21
Protocol: as §1

HOSE [2] = system: HOSE
Protocol: as §7, §3, §8, §9, §10, §6

[3] = A2780 cells, concentrations as stated at the place or in the figure

Compound: CC/C(=C(\c1ccccc1)c1ccc(OCCN(C)C)cc1)c1ccccc1 [Tamoxifen]
- effect of combination with MPL, in words (OVCAR-3 and A2780): significant increase in the effect

Compound: CN/C(=N/CCSCc1nc[nH]c1C)NC#N [Cimetidine]
- Interaction of the drug with MPL (synergy), in words (A2780; [3]): significant combination synergistic effect

Compound: Nc1ccn([C@@H]2O[C@H](CO)[C@@H](O)C2(F)F)c(=O)n1 [Gemcitabine]
- Interaction of the drug with MPL (synergy), in words (YOU): do not display a synergistic interaction
- Interaction of the drug with MPL (synergy), in words (A2780; [3]): strong synergistic interaction
- Interaction of the drug with MPL (synergy), in words (A2780; A2780 cells, concentrations as stated at the place or in the figure, listed as gemcitabine): synergistically inhibits
- Interaction of the drug with MPL (synergy), in words (REN): do not display a synergistic interaction
- Interaction of the drug with MPL (synergy), in words (LN-18): synergistic interaction; also recorded: synergistically inhibits
- Interaction of the drug(s) with MPL (synergy), in words (HT-29): synergistic cytotoxicity
- Interaction of the drug with MPL (synergy), in words (CFPAC-1; 5 μM MPL, FIG. 23): synergistic interaction; also recorded: synergistically exerted a cytotoxic effect
- Interaction of the drug(s) with MPL (synergy), in words (CFPAC-1; 10 μM MPL, data not shown): synergistically exerted a cytotoxic effect
- Interaction of the drug with MPL (synergy), in words (AsPC1): strong synergistic interaction; also recorded: synergistically inhibits
- Interaction of the drug with MPL (synergy), in words (Hep3B): No synergy was observed
- effect of combination with MPL, in words (OVCAR-3 and A2780): notable increase in efficacy
- Interaction of the drug with MPL (synergy), in words (HOSE [1]; 72 h): do not display the same synergistic interaction
- Interaction of the drug with MPL (synergy), in words (HOSE [1]; 72 h, listed as gemcitabine): do not display a synergistic interaction; also recorded: without displaying a synergistic interaction
- Interaction of the drug(s) with MPL (synergy), in words (C170): synergistic cytotoxicity
- Interaction of the drug with MPL (synergy), in words (PET): do not display a synergistic interaction

Compound: N.N.[Cl][Pt][Cl] [Cisplatin, cis-diamminedichloroplatinum(II)]
- Interaction of the drug with MPL (synergy), in words (A2780; [3]): some increase of effect
- Interaction of the drug with MPL (synergy), in words (Hep3B): No synergy was observed

Compound: CCCSc1ccc2nc(NC(=O)OC)[nH]c2c1 [A8Z, albendazole]
- Interaction of the drug with MPL (synergy), in words (A2780; [3]): good synergistic effect

Compound: Cn1c(=O)c2c(ncn2C)n(C)c1=O [caffeine]
- Interaction of the drug with MPL (synergy), in words (OVCAR-3): no synergistic effect

Compound: O=c1[nH]cc(F)c(=O)[nH]1 [Fluorouracil]
- effect of combination with MPL, in words (OVCAR-3 and A2780): significant increase in the effect
- Interaction of the drug(s) with MPL (synergy), in words (C170): synergistic cytotoxicity

Compound: CC#C[C@]1(O)CC[C@H]2[C@@H]3CCC4=CC(=O)CCC4=C3[C@@H](c3ccc(N(C)C)cc3)C[C@@]21C [Mifepristone]
- Interaction of the drug with MPL (synergy), in words (A2780; [3]): significant combination synergistic effect

Compound: CN(C)c1ccc(O)c2c1C[C@H]1C[C@H]3[C@H](N(C)C)C(O)=C(C(N)=O)C(=O)[C@@]3(O)C(O)=C1C2=O [Mino, minocycline]
- B) Double treatment with MPL: synergistic cytotoxicity, one symbol per experiment (HOSE [1]; HOSE, MPL 5.0 μM + Mino (5 μM), 72 h): ✓✓✓
- B) Double treatment with MPL: synergistic cytotoxicity, one symbol per experiment (OVCAR-3; OVCAR-3, MPL 5.0 μM + Mino (5 μM)): ✓✓✓
- B) Double treatment with MPL: synergistic cytotoxicity, one symbol per experiment (OVCAR-3; OVCAR-3, MPL 5.0 μM + Mino (10 μM)): ✓✓✓

Compound: NC(Cc1c[nH]cn1)C(=O)O (racemic) [DL-histidine]
- effect of combination with MPL, in words (OVCAR-3 and A2780): no effect
- Interaction of the drug with MPL (synergy), in words (OVCAR-3): no synergistic effect

Compound: COc1cccc2c1C(=O)c1c(O)c3c(c(O)c1C2=O)C[C@@](O)(C(=O)CO)C[C@@H]3O[C@H]1C[C@H](N)[C@H](O)[C@H](C)O1 [Doxorubicin]
- Interaction of the drug with MPL (synergy), in words (YOU): synergistic interaction; also recorded: synergistic inhibition
- Interaction of the drug with MPL (synergy), in words (A2780; A2780 cells, concentrations as stated in the figure): synergy; also recorded: synergistic interaction; also recorded: synergistic inhibition
- doxorubicin concentration in the absence of MPL equivalent to doxorubicin (10 nM) in the presence of MPL (5 μM) (A2780; A2780 cells, FIG. 1): 1000 nM
- IC50 (A2780; A2780 cells, with addition of 5 μM MPL, FIG. 1): ~1 nM
- IC50 (A2780; A2780 cells, without MPL, FIG. 1): ~500 nM
- Interaction of the drug with MPL (synergy), in words (REN): synergistic interaction; also recorded: synergistic inhibition
- Interaction of the drug with MPL (synergy), in words (LN-18): synergistic interaction; also recorded: synergistic inhibition
- Interaction of the drug with MPL (synergy), in words (AsPC1): do not display a synergistic interaction
- Interaction of the drug with MPL (synergy), in words (Hep3B): synergistic cytotoxicity; also recorded: synergistically inhibits; also recorded: synergistically cytotoxic
- Interaction of the drug with MPL (synergy), in words (OVCAR-3): synergistic interaction; also recorded: synergistic inhibition; also recorded: synergistic cytotoxic effect
- Interaction of the drug with MPL (synergy), in words (U87): synergistic interaction; also recorded: synergistic inhibition
- Interaction of the drug with MPL (synergy), in words (PET): synergistic interaction; also recorded: synergistic inhibition

Compound: COc1cc2c(c(OC)c1OC)-c1ccc(OC)c(=O)cc1[C@@H](NC(C)=O)CC2 [Colchicine]
- Interaction of the drug with MPL (synergy), in words (A2780; [3]): cytotoxic effect
- Interaction of the drug with MPL (synergy), in words (A2780; A2780 cells, concentrations as stated at the place or in the figure, listed as colchicine): synergistic effect; also recorded: synergistic cytotoxicity

Compound: c1ccc([C@H]2CN3CCSC3=N2)cc1 [Levamisole]
- Interaction of the drug with MPL (synergy), in words (A2780; [3]): did not display a synergistic effect
- Interaction of the drug with MPL (synergy), in words (A2780; A2780 cells, concentrations as stated at the place or in the figure, listed as levamisole): does not display a synergistic cytotoxicity
- synergistic cytotoxic effect with MPL, predicted (A2780; A2780 cells, levamisole at higher concentrations): may exert a synergistic cytotoxic effect
- Synergistic cytotoxicity between MPL and combined drug (OVCAR-3; OVCAR-3, 5 μM MPL + drug, Table 7): ✓^3
- Interaction of the drug with MPL (synergy), in words (OVCAR-3): significant synergistic effect; also recorded: does so against OVCAR-3 cells

Compound: Ivermectin
- effect of the drug alone (A2780; A2780 (ovarian)): inhibited
- Interaction of the drug with MPL (synergy), in words (A2780; [3]): synergistic effect

Compound: N[C@@H](Cc1c[nH]cn1)C(=O)O [L-histidine]
- effect of combination with MPL, in words (OVCAR-3 and A2780): no effect
- Interaction of the drug with MPL (synergy), in words (OVCAR-3): no synergistic effect

Compound: NCC(=O)O [glycine]
- effect of combination with MPL, in words (OVCAR-3 and A2780): no effect
- Interaction of the drug with MPL (synergy), in words (OVCAR-3): no synergistic effect

Compound: O=C1[O][Pt]2([NH][C@@H]3CCCC[C@H]3[NH]2)[O]C1=O [Oxaliplatin]
- Interaction of the drug with MPL (synergy / additive cytotoxicity), in words (HOSE [2]): does not exert any additive cytotoxic effect
- Interaction of the drug with MPL (synergy / additive cytotoxicity), in words (HOSE [1]; HOSE cells, MPL at 5 μM, 48 h, FIG. 24): does not display a synergistic cytotoxicity
